Values joined by “and” are separate entries in the source; they are usually repeats but may differ in a detail not shown here. Equal values may be shown once. Read-outs that look alike come from different tables or passages of the source.
What was measured:
SARS2 = assay type: cell-based, SARS-CoV-2; conditions: for Percentage Infection Relative to Appropriate DMSO Control with Avg Background Subtraction: Nunc Celigo plates; for Percentage Inhibition Average 1 μM / Screening data (Relative infection to DMSO controls) Average 1 μM: SARS2, 1 μM; for Screening data (Relative infection to DMSO controls) Average 1 μM / Screening data (Relative infection to DMSO controls) Average 5 μM / Screening data (Relative infection to DMSO controls) Average 10 μM / Screening data (Relative infection to DMSO controls) Average 25 μM / Screening data (Relative infection to DMSO controls) Average 50 μM / Average (relative infection to DMSO over the 5 tested concentrations): 100=DMSO control; for Percentage Inhibition Average 5 μM / Screening data (Relative infection to DMSO controls) Average 5 μM: SARS2, 5 μM; for Percentage Inhibition Average 10 μM / Screening data (Relative infection to DMSO controls) Average 10 μM: SARS2, 10 μM; for Percentage Inhibition Average 25 μM / Screening data (Relative infection to DMSO controls) Average 25 μM: SARS2, 25 μM; for Percentage Inhibition Average 50 μM / Screening data (Relative infection to DMSO controls) Average 50 μM: SARS2, 50 μM; for Average (relative infection to DMSO over the 5 tested concentrations): SARS2, average over 1 to 50 uM; for Infection Data, Average, Mean: average of Exp 1-2 (SMW491, SMW492)
cells (nuclei count) = conditions: for Relative cell count to DMSO controls, Average 1 μM / Relative cell count to DMSO controls, Average 5 μM / Relative cell count to DMSO controls, Average 10 μM / Relative cell count to DMSO controls, Average 25 μM / Relative cell count to DMSO controls, Average 50 μM: toxicity data, 100=DMSO control; for Toxicity Data, Average, Mean percentage relative to DMSO control: Average of Exp 1 (SMW491) and Exp 2 (SMW492); for Relative cell count to DMSO controls, Average (for correlation analysis): average value over the 5 tested concentrations (1 to 50 uM)

SMILES | Percentage Infection Relative to Appropriate DMSO Control with Avg Background Subtraction (SARS2; Exp 1 (SMW491), 1 uM) | Percentage Infection Relative to Appropriate DMSO Control with Avg Background Subtraction (SARS2; Exp 1 (SMW491), 5 uM) | Percentage Infection Relative to Appropriate DMSO Control with Avg Background Subtraction (SARS2; Exp 1 (SMW491), 10 uM) | Percentage Infection Relative to Appropriate DMSO Control with Avg Background Subtraction (SARS2; Exp 1 (SMW491), 25 uM) | Percentage Infection Relative to Appropriate DMSO Control with Avg Background Subtraction (SARS2; Exp 1 (SMW491), 50 uM) | Percentage Infection Relative to Appropriate DMSO Control with Avg Background Subtraction (SARS2; Exp 2 (SMW492), 1 uM) | Percentage Infection Relative to Appropriate DMSO Control with Avg Background Subtraction (SARS2; Exp 2 (SMW492), 5 uM) | Percentage Infection Relative to Appropriate DMSO Control with Avg Background Subtraction (SARS2; Exp 2 (SMW492), 50 uM) | Percentage Inhibition Average 1 μM (SARS2) [%] | Screening data (Relative infection to DMSO controls) Average 1 μM (SARS2) | Percentage Inhibition Average 5 μM (SARS2) [%] | Screening data (Relative infection to DMSO controls) Average 5 μM (SARS2) | Percentage Inhibition Average 10 μM (SARS2) [%] | Screening data (Relative infection to DMSO controls) Average 10 μM (SARS2) | Percentage Inhibition Average 25 μM (SARS2) [%] | Screening data (Relative infection to DMSO controls) Average 25 μM (SARS2) | Percentage Inhibition Average 50 μM (SARS2) [%] | Screening data (Relative infection to DMSO controls) Average 50 μM (SARS2) | Average (relative infection to DMSO over the 5 tested concentrations) (SARS2) | Infection Data, Average, Mean (SARS2; n 4, 1 uM) [%] | other results
CCN(CC)CCN(Cc1ccccn1)C(=O)c1cccs1 [SILCS37] | 88.98% and 80.18% | 95.46% and 97.68% | 109.85% and 92.25% | 117.51% and 105.36% | 136.02% and 127.57% | 80.82% and 84.84% | 71.36% and 74.06% | 88.75% and 46.65% | 16.29 | 83.71 | 15.36 | 84.64 | 23.94 | 76.06 | −2.13 | 102.13 | 0.25 | 99.75 | 89.26 | 83.71 | Percentage Infection Relative to Appropriate DMSO Control with Avg Background Subtraction (SARS2; Exp 2 (SMW492), 25 uM): 121.75% and 63.91%; Infection Data, Average, Mean (SARS2; n 4, 5 uM): 84.64%; Infection Data, Average, Mean (SARS2; n 4, 10 uM): 76.06%; Infection Data, Average, Mean (SARS2; n 4, 25 uM): 102.13%; Infection Data, Average, Mean (SARS2; n 4, 50 uM): 99.75%; Relative cell count to DMSO controls, Average 1 μM (cells (nuclei count)): 108.95; Relative cell count to DMSO controls, Average 5 μM (cells (nuclei count)): 110.16; Relative cell count to DMSO controls, Average 10 μM (cells (nuclei count)): 116.31; Relative cell count to DMSO controls, Average 25 μM (cells (nuclei count)): 104.07; Relative cell count to DMSO controls, Average 50 μM (cells (nuclei count)): 75.29; Toxicity Data, Average, Mean percentage relative to DMSO control (cells (nuclei count); n=4, 1 uM): 108.95%; Toxicity Data, Average, Mean percentage relative to DMSO control (cells (nuclei count); n=4, 5 uM): 110.16%; Toxicity Data, Average, Mean percentage relative to DMSO control (cells (nuclei count); n=4, 10 uM): 116.31%; Toxicity Data, Average, Mean percentage relative to DMSO control (cells (nuclei count); n=4, 25 uM): 104.07%; Toxicity Data, Average, Mean percentage relative to DMSO control (cells (nuclei count); n=4, 50 uM): 75.29%; Relative cell count to DMSO controls, Average (for correlation analysis) (cells (nuclei count)): 102.96
CCN(CC)CCN(Cc1ccncc1)C(=O)c1cccs1 [SILCS38] | 101.61% and 80.30% | 101.51% and 104.07% | 91.03% and 87.80% | 110.71% and 103.81% | 96.25% and 89.03% | 74.34% and 48.74% | 72.80% and 60.72% | 90.22% and 70.45% | 23.75 | 76.25 | 15.22 | 84.78 | 26.94 | 73.06 | 1.37 | 98.63 | 13.51 | 86.49 | 83.84 | 76.25 | Percentage Infection Relative to Appropriate DMSO Control with Avg Background Subtraction (SARS2; Exp 2 (SMW492), 10 uM): 63.76% and 49.65%; Infection Data, Average, Mean (SARS2; n 4, 5 uM): 84.78%; Infection Data, Average, Mean (SARS2; n 4, 10 uM): 73.06%; Infection Data, Average, Mean (SARS2; n 4, 25 uM): 98.63%; Infection Data, Average, Mean (SARS2; n 4, 50 uM): 86.49%; Relative cell count to DMSO controls, Average 1 μM (cells (nuclei count)): 111.85; Relative cell count to DMSO controls, Average 5 μM (cells (nuclei count)): 110; Relative cell count to DMSO controls, Average 10 μM (cells (nuclei count)): 115.05; Relative cell count to DMSO controls, Average 25 μM (cells (nuclei count)): 107.71; Relative cell count to DMSO controls, Average 50 μM (cells (nuclei count)): 105.21; Toxicity Data, Average, Mean percentage relative to DMSO control (cells (nuclei count); n=4, 1 uM): 111.85%; Toxicity Data, Average, Mean percentage relative to DMSO control (cells (nuclei count); n=4, 5 uM): 110.00%; Toxicity Data, Average, Mean percentage relative to DMSO control (cells (nuclei count); n=4, 10 uM): 115.05%; Toxicity Data, Average, Mean percentage relative to DMSO control (cells (nuclei count); n=4, 25 uM): 107.71%; Toxicity Data, Average, Mean percentage relative to DMSO control (cells (nuclei count); n=4, 50 uM): 105.21%; Relative cell count to DMSO controls, Average (for correlation analysis) (cells (nuclei count)): 109.96
